The values below come from publication PMC9687209 (2022).

Assay [1] deals with C1-a (DNA, aptamer) CAACATGATGTTCCGTCATTTTG
In words: BLI. Particulars: 177.7 mM Na+, 0.492 mM Mg2+; 0.2 g/L KCl, 0.2 g/L KH2PO4, 0.1 g/L CaCl2; selection buffer (NaCl/phosphate), pH 7.4, 25 °C.

Assay [2] relates to Random Sequence (DNA, single strand) ATTGGCACTCCACGCATAGGATTCCGGCTAATCGACTGACTGCCGGTACGATGCAGTCAGCCTATGCGTGCTACCGTGAA
In words: BLI. Particulars: 177.7 mM Na+, 0.492 mM Mg2+; 0.2 g/L KCl, 0.2 g/L KH2PO4, 0.1 g/L CaCl2; selection buffer, pH 7.4, 25 °C; NB [sic]; 6.25 μM tested in Figure 4.

Assay [3] relates to C1-d (DNA, aptamer) CCGAGGTGTGTACACCGTG
In words: BLI. Particulars: 177.7 mM Na+, 0.492 mM Mg2+, 0.2 g/L KCl, 0.2 g/L KH2PO4, 0.1 g/L CaCl2, pH 7.4, 25 °C.

Assay [4] has as its system C2 (DNA, aptamer) ATTGGCACTCCACGCATAGGGGATAACGGGTTGATGGTACTTCTATCTATCGCGTTGTGCCCTATGCGTGCTACCGTGAA
In words: BLI. Conditions: 177.7 mM Na+, 0.492 mM Mg2+; 0.2 g/L KCl, 0.2 g/L KH2PO4, 0.1 g/L CaCl2; selection buffer (NaCl/phosphate), pH 7.4, 25 °C.

Assay [5] relates to C116 (DNA, aptamer) ATTGGCACTCCACGCATAGGGATCTCATAACCAGTCTCTTTGACTGATGTTAGTAAGGTCCCTATGCGTGCTACCGTGAA
Kind of assay: BLI. Conditions: 177.7 mM Na+, 0.492 mM Mg2+; 0.2 g/L KCl, 0.2 g/L KH2PO4, 0.1 g/L CaCl2; selection buffer (NaCl/phosphate), pH 7.4, 25 °C.

Assay [6] deals with C100/htC4 (DNA, aptamer) ATTGGCACTCCACGCATAGGGAATGGACCCGGTATAATTCCCTCAAGAGTGCCAATTTCACCTATGCGTGCTACCGTGAA
In words: BLI. Conditions: 177.7 mM Na+, 0.492 mM Mg2+; 0.2 g/L KCl, 0.2 g/L KH2PO4, 0.1 g/L CaCl2; selection buffer (NaCl/phosphate), pH 7.4, 25 °C.

In assay [7] the test system is C66 (DNA, aptamer) ATTGGCACTCCACGCATAGGGGTGGTCTTCTGGGTAATCCCCGACTACCCTTATGCCGGCCCTATGCGTGCTACCGTGAA
In words: BLI. Conditions: 177.7 mM Na+, 0.492 mM Mg2+; 0.2 g/L KCl, 0.2 g/L KH2PO4, 0.1 g/L CaCl2; selection buffer (NaCl/phosphate), pH 7.4, 25 °C.

Assay [8] has as its system C1/htC1 (DNA, aptamer) ATTGGCACTCCACGCATAGGCCAACATGATGTTCCGTCATTTTGAGGTGTGTACACCGTGCCTATGCGTGCTACCGTGAA
In words: BLI. Particulars: 177.7 mM Na+, 0.492 mM Mg2+; 0.2 g/L KCl, 0.2 g/L KH2PO4, 0.1 g/L CaCl2; selection buffer (NaCl/phosphate), pH 7.4, 25 °C.

Assay [9] relates to C53 (DNA, aptamer) ATTGGCACTCCACGCATAGGGTAAAGTACGTATGTCATGCACATGCCGTATTCTCTTTGCCCTATGCGTGCTACCGTGAA
In words: BLI. Conditions: 177.7 mM Na+, 0.492 mM Mg2+; 0.2 g/L KCl, 0.2 g/L KH2PO4, 0.1 g/L CaCl2; selection buffer (NaCl/phosphate), pH 7.4, 25 °C; NB [sic]; highest concentration not stated.

Assay [10] concerns C1-b (DNA, aptamer) GGTGTGTACACC
In words: BLI. Conditions: 177.7 mM Na+, 0.492 mM Mg2+; 0.2 g/L KCl, 0.2 g/L KH2PO4, 0.1 g/L CaCl2; selection buffer (NaCl/phosphate), pH 7.4, 25 °C.

Assay [11] relates to C58/htC3 (DNA, aptamer) ATTGGCACTCCACGCATAGGCCAAGGTGTCAATCTTGAATAGCTGTGTAACGTCTATGTGCCTATGCGTGCTACCGTGAA
In words: BLI. Conditions: 177.7 mM Na+, 0.492 mM Mg2+; 0.2 g/L KCl, 0.2 g/L KH2PO4, 0.1 g/L CaCl2; selection buffer (NaCl/phosphate), pH 7.4, 25 °C.

For assay [12], the system named is htC5 (DNA, aptamer) ATTGGCACTCCACGCATAGGGGAGGGCCGGTTGAACTGTAATGTGTAAACCACGCGCTACCCTATGCGTGCTACCGTGAA
In words: BLI. Particulars: 177.7 mM Na+, 0.492 mM Mg2+; 0.2 g/L KCl, 0.2 g/L KH2PO4, 0.1 g/L CaCl2; selection buffer (NaCl/phosphate), pH 7.4, 25 °C; NB [sic]; highest concentration not stated.

Assay [13] concerns C1-s (DNA, aptamer) CCAACATGATGTTCCGTCATTTTGAGGTGTGTACACCGTG
Kind of assay: BLI. Particulars: 177.7 mM Na+, 0.492 mM Mg2+; 0.2 g/L KCl, 0.2 g/L KH2PO4, 0.1 g/L CaCl2; selection buffer (NaCl/phosphate), pH 7.4, 25 °C.

Assay [14] deals with C1-c (DNA, aptamer) CCAACATGATGTTCCGTCATTTTGAGCGTG
In words: BLI. Particulars: 177.7 mM Na+, 0.492 mM Mg2+; 0.2 g/L KCl, 0.2 g/L KH2PO4, 0.1 g/L CaCl2; selection buffer (NaCl/phosphate), pH 7.4, 25 °C.

The test system of assay [15] is C87 (DNA, aptamer) ATTGGCACTCCACGCATAGGGGAAGCTGCTCTCATCAATAAAAAATGAGACGGAGGTTACCCTATGCGTGCTACCGTGAA
In words: BLI. Particulars: 177.7 mM Na+, 0.492 mM Mg2+; 0.2 g/L KCl, 0.2 g/L KH2PO4, 0.1 g/L CaCl2; selection buffer (NaCl/phosphate), pH 7.4, 25 °C.

Assay [16] has as its system C1-d (DNA, aptamer) CCGAGGTGTGTACACCGTG
In words: BLI response, four-parameter logistic fit. Conditions: 177.7 mM Na+, 0.492 mM Mg2+; 0.2 g/L KCl, 0.2 g/L KH2PO4, 0.1 g/L CaCl2; selection buffer, pH 7.4, 25 °C; calibration curve 0.625-30 μM DA; Hill slope 1.351.

Assay [17] deals with C12/htC2 (DNA, aptamer) ATTGGCACTCCACGCATAGGGACATCGAGAAGAATCCTGATACGACTTGGCTTTGCTGGCCCTATGCGTGCTACCGTGAA
In words: BLI. Particulars: 177.7 mM Na+, 0.492 mM Mg2+; 0.2 g/L KCl, 0.2 g/L KH2PO4, 0.1 g/L CaCl2; selection buffer (NaCl/phosphate), pH 7.4, 25 °C.

With `C/C(=C/C=C/[C@@H](C)C(=O)O)[C@H]1CN[C@H](C(=O)O)[C@H]1CC(=O)O`, the KD was found to be 6.9 ± 0.628 µM in assay [1]; 0.109 ± 0.00931 µM in [3] (selection buffer (NaCl/phosphate), kon 2.94 × 10^5 1/Ms, kdis 5.13 × 10^-2 1/s); 20.3 µM in [4]; 11.7 µM in assay [5]; 3.25 µM in [6]; 22.7 µM in assay [7]. The equilibrium dissociation constant (KD) in assay [8] is 1.69 µM; in assay [10], 0.167 ± 0.00933 µM; in assay [11] it was 6.33 µM; in assay [13] it was 1.5 ± 0.113 µM; in assay [14], 4.9 ± 0.312 µM; in [15], 5.04 µM. Further, in [17], the KD is 5.21 µM. Besides, the binding result in assay [2], in assay [9] and in assay [12] was “no” in each case. Moreover, the 50% effective concentration (EC50) in [16] came to 12.57 µM.

`C=C1[C@@H](O)[C@@H]2O[C@]3(CC[C@H](/C=C/[C@@H](C)[C@@H]4CC(C)=C[C@@]5(O[C@H](C[C@@](C)(O)C(=O)O)CC[C@H]5O)O4)O3)CC[C@H]2O[C@@H]1[C@@H](O)C[C@H](C)[C@H]1O[C@@]2(CCCCO2)CC[C@H]1C`: the binding entry in assay [3] (selection buffer, 6.25 μM tested) is “no”.

As usually defined, the KD is a measure of binding affinity in units of concentration. A low value points to a tighter complex. The term EC50 denotes the concentration needed to bring the measured effect to its halfway point.
